Assay [1] deals with E. coli stress response genes. As to conditions: cited from earlier work.
For assay [2], the system named is E. coli MG1655. Briefly: microbe, parasite or virus in culture. In kind it is cell-based, Escherichia coli. As to conditions: 4 hours, 50% reduction of CFUs vs control, Mueller Hinton Broth, 37°C, five replicates, repeated twice. The protocol:
The MIC50s for all antimicrobials were determined by inoculating strains grown to mid-log phase into the wells of a 96-microwell plate. Approximately 10^2 cells from overnight cultures were inoculated into tubes containing 10 ml of Mueller Hinton Broth medium, and the tubes were incubated at 37°C with strong shaking until the mid-log phase of growth (approximately 10^8 cells/ml). […] The plates were incubated at 37°C for 4 h with continuous shaking in a plate reader (Synergy 2, BioTeK). After four hours, aliquots from wells with OD^600 readings ranging from 10 to 90% values in comparison with the control, were serially diluted in sterile 0.9% NaCl, and incubated during 1 hour to allow the resolution of filaments as consequence of SOS activation, if any. Bacterial suspensions were plated in Mueller Hinton Broth agar plates to estimate the viability as colony forming units (CFUs). Five replicates per concentration were prepared and the experiments were repeated twice.

For assay [3], the system named is E. coli stress response genes (strain MG1655). Nature of the assay: Relative gene expression of stress response genes by quantitative real-time PCR. For Result, cpxR: key: NDE: non-differentially expressed, p-value ≥ 0,05; UP: upregulated, p-value ≤ 0,05; DOWN: downregulated, p-value ≤ 0,05. For Result, oxyR: key: NDE: non-differentially expressed, p-value ≥ 0,05; UP: upregulated, p-value ≤ 0,05; DOWN: downregulated, p-value ≤ 0,05. For Result, rpoE: key: NDE: non-differentially expressed, p-value ≥ 0,05; UP: upregulated, p-value ≤ 0,05; DOWN: downregulated, p-value ≤ 0,05. In kind it is cell-based, Escherichia coli. As to conditions: qPCR; for Result, cpxA / Result, cpxR / Result, dinB / Result, lexA / Result, marR / Result, oxyR / Result, phoP / Result, phoQ / Result, recA / Result, rpoE / Result, rpoS / Result, umuC: REST 2009 randomisation test. On the procedure: Preparation of each of the six treatments and the control samples was carried out by two operators on three consecutive days, thereby comprising three biological replicates for each of the six experimental and one control groups. To obtain the starting material for the experiment, a fresh bacterial culture was grown from a glycerol stock on Mueller-Hinton (MH) agar plates at 37°C for 18–24 hours. One well-isolated colony per biological replicate was used to inoculate 2 ml of liquid MH (Sigma) in a 10 ml sterile polypropylene tube and incubated at 37°C for 16 hours with mild shaking. The overnight (ON) culture was then diluted 1∶100 in MH, subdivided into seven 10 ml aliquots and incubated in 50 ml-Falcon tubes at 37°C for 2.5 hours at 220 rpm. When the OD600 of bacterial cultures reached 0.5–0.7, respective antibiotics and AMPs were added to a concentration to match with those used in the mutagenesis experiments. These bacterial cultures were incubated for 20 minutes at 37°C with gentle shaking. Two ml of bacterial cultures from each treatment and the control were collected, immediately centrifuged at 10000 g for 2 minutes and the supernatant was removed to stop the treatment. The bacterial pellet was then resuspended in 1 ml MH, followed by an addition of 1 ml of RNAprotect Bacteria Reagent (Qiagen), 5 minutes incubation and centrifugation at 10000 g for 2 minutes at room temperature. The supernatant was discarded and the bacterial pellet was immediately frozen and stored at −80°C until RNA extraction.
Total RNA was isolated using RNeasy kit (Qiagen) according to the manufacturer's instructions and eluted in 50 µl of RNase-free water. The nucleic acid yield and purity were determined by measuring the optical density at A260/280 using a Nanodrop spectrophotometer (Thermo Scientific). RNA samples were treated with TURBO DNase (Life Technologies). Briefly, ten µg of RNA were used in a total volume of 500 µl containing 20 units of TURBO DNase, incubated for 30 minutes at 37°C, immediately followed by RNeasy (Qiagen) cleanup and elution in 30 µl of RNase-free water. Following DNase treatment, RNA integrity was assessed using Agilent RNA 6000 Nano kit and 2100 Bioanalyzer instrument (both Agilent Technologies).
High-Capacity cDNA Reverse Transcription Kit with RNase Inhibitor (Applied Biosystems) was used for cDNA synthesis. Initially, to ensure linear conversion of the transcripts, the dynamic range of reverse transcription reaction was tested by performing a standard curve with cDNA, synthesised using various input amounts of pooled RNA. Total RNA (250 ng per reaction) and random primers were used for cDNA synthesis. To obtain sufficient amount of cDNA, several batches of 20 µl RT reactions were pooled, diluted 50-fold with RNase-free water and stored in single-use aliquots at −80°C until further use. All 21 samples were tested for presence of contaminating genomic DNA by running the mdoG assay with cDNA and the respective no reverse transcription (−RT) controls.
Escherichia coli strain K-12 substrain MG1655 complete genome (accession U00096) sequence was downloaded from NCBI database (www.ncbi.nlm.nih.gov) and used for primer design. Target sequence accession number, location of the amplicon, amplicon length and primer sequences for each assay can be found in table S2. Primers were designed using Primer Express software (Applied Biosystems) and optimized for annealing temperature of 60°C. Each primer pair and amplicon were checked for secondary structure formation using Oligo Tool (Integrated DNA technologies, http://eu.idtdna.com/analyzer/Applications/OligoAnalyzer/).
On the technique in general: Quantitative PCR measures a nucleic acid by following its amplification.

Assay [4] has as its system E. coli MG1655. Nature of the assay: Minimal inhibitory concentration (MIC), micro-dilution. Type of assay: cell-based, Escherichia coli. As to conditions: inoculum 2×10^8 cfu/ml, 24 h, liquid MH medium, 37°C. On the procedure:
E. coli K-12 MG1655 was used for all experiments, grown in liquid Mueller-Hilton (MH) agar or agarose, unless otherwise indicated. All experiments were carried out at 37°C.
MICs were determined according to CLSI recommendations by a micro-dilution method with the exception that the inoculum size that was adjusted to 2×10^8 cfu/ml from a regrowth of overnight cultures to be consistent with the mutagenesis experiments. […] Polypropylene non-binding plates (Th. Geyer, Germany) were used for all experiments.
A general note: In broth dilution the organism is exposed to a series of concentrations in liquid medium.

Setting [5] is: norfloxacin 250 ng/ml, 30 min, ref Kohanski,2007.
Where [6] appears, read: norfloxacin 250 ng/ml, 60 min, ref Kohanski,2007.
The mark [7] stands for this setting: norfloxacin 15 μg/ml, 20 min, gyrA+/parCr, ref Peter,2004.
The mark [8] stands for this setting: norfloxacin 15 μg/ml, 30min, gyrAr/parCCr cells, ref Peter,2004.
Where [9] appears, read: 20 minutes exposure vs non-treated bacteria.
The mark [10] stands for this setting: 20 minutes exposure vs non-treated bacteria, normalized to arcA, mdoG, tus, Pexiganan 16, Melittin 16, Kanamycin 16, Ciprofloxacin 0.5, Lysozyme 128, Ampicillin 32 μg/ml, three biological replicates.

Where two headings read alike, the source gives them in different places.

As to `CCn1cc(C(=O)O)c(=O)c2cc(F)c(N3CCNCC3)cc21` [norfloxacin], the “expression, recA (microarray database)” value in assay [1] (norfloxacin 0.12 μg/ml, 30 min, ref Shaw,2003) is given as 11.1. In assay [1] (setting [5]), the “expression, rpoE (microarray database)” value is recorded as -2.308 and the “expression, rpoS (microarray database)” value is reported as -2.24. In assay [1] (setting [6]), the “expression, cpxR (microarray database)” value is -2.588 and the “expression, phoP (microarray database)” value was -2.179. For the same compound, in assay [1] (norfloxacin 15 μg/ml, 4 min, gyrA+/parC+, ref Peter,2004), the “expression, phoQ (microarray database)” value was -2.778. Further, in assay [1] (norfloxacin 15 μg/ml, 10 min, gyrA+/parCr, ref Peter,2004), the “expression, cpxA (microarray database)” value is reported as -2.439. In assay [1] (setting [7]), the “expression, dinB (microarray database)” value is 2.57 and the “expression, oxyR (microarray database)” value is recorded as 4.05. Moreover, in assay [1] (setting [8]), the “expression, lexA (microarray database)” value is on record as 5 and the “expression, umuC (microarray database)” value is 8.421. Besides, the “expression, marR (microarray database)” value in assay [1] (norfloxacin (30min) / spectinmycin, 250 ng/ml, 30 min, spectinomycin (400 μg/ml), ref Kohanski,2007) was -3.206.

Consider `CC[C@H](C)[C@H](NC(=O)[C@H](CCCCN)NC(=O)[C@H](CCC(=O)O)NC(=O)[C@H](CCCCN)NC(=O)[C@H](CO)NC(=O)[C@H](CCCCN)NC(=O)[C@H](CCCNC(=N)N)NC(=O)[C@H](Cc1ccccc1)NC(=O)[C@H](Cc1ccccc1)NC(=O)[C@H](CC(=O)O)NC(=O)CNC(=O)[C@H](CC(C)C)NC(=O)[C@@H](N)CC(C)C)C(=O)NCC(=O)N[C@@H](CCCCN)C(=O)N[C@@H](CCC(=O)O)C(=O)N[C@@H](Cc1ccccc1)C(=O)N[C@@H](CCCCN)C(=O)N[C@@H](CCCNC(=N)N)C(=O)N[C@H](C(=O)N[C@H](C(=O)N[C@@H](CCC(N)=O)C(=O)N[C@@H](CCCNC(=N)N)C(=O)N[C@H](C(=O)N[C@@H](CCCCN)C(=O)N[C@@H](CC(=O)O)C(=O)N[C@@H](Cc1ccccc1)C(=O)N[C@@H](CC(C)C)C(=O)N[C@@H](CCCNC(=N)N)C(=O)N[C@@H](CC(N)=O)C(=O)N[C@@H](CC(C)C)C(=O)N[C@H](C(=O)N1CCC[C@H]1C(=O)N[C@@H](CCCNC(=N)N)C(=O)N[C@H](C(=O)N[C@@H](CCC(=O)O)C(=O)N[C@@H](CO)C(=O)O)[C@@H](C)O)C(C)C)[C@@H](C)CC)C(C)C)[C@@H](C)CC` [LL-37], for which the MIC50 in the assay on E. coli MG1655 [2] is 8 µg/mL.

As to “Human lysozyme: human lysozyme obtained from Sigma”, in assay [3] (setting [9]), the “Result, cpxA” value is listed as “NDE”; the “Result, cpxR” value was “NDE”; the “Result, dinB” value is given as “NDE”; the “Result, lexA” value was “NDE”. Besides, in assay [3] (setting [9]), the “Result, marR” value is recorded as “NDE”; the “Result, oxyR” value is “NDE”; the “Result, phoP” value is given as “NDE”; the “Result, phoQ” value is “NDE”. In addition, in assay [3] (setting [9]), the “Result, recA” value is recorded as “NDE”; the “Result, rpoE” value is recorded as “NDE”; the “Result, rpoS” value is on record as “NDE”; the “Result, umuC” value is on record as “NDE”. Besides, in assay [3] (setting [10]), the “Expression, cpxA (Envelope stress)” value turned out to be 0.902; the “Expression, cpxR (Envelope stress)” value was determined as 0.908; the “Expression, dinB (SOS response)” value is recorded as 1.116; the “Expression, lexA (SOS response)” value was determined as 1.18. Also, in assay [3] (setting [10]), the “Expression, marR (Independent multiple antibiotic resistance)” value was determined as 0.633; the “Expression, oxyR (Oxidative stress)” value came to 1.334; the “Expression, phoP (Envelope stress)” value is listed as 0.794; the “Expression, phoQ (Envelope stress)” value stood at 0.667. Also, in assay [3] (setting [10]), the “Expression, recA (SOS response)” value is on record as 1.27; the “Expression, rpoE (Envelope stress)” value was 0.784; the “Expression, rpoS (Sigma S response)” value came to 0.899; the “Expression, umuC (SOS response)” value came to 1.056. Also, the MIC (as a rule, the least concentration at which growth counts as inhibited) in the assay on E. coli MG1655 [4] is 20 µg/mL. For the same compound, the MIC50 in the assay on E. coli MG1655 [2] is 12.8 µg/mL.

For the compound `O=C(O)c1cn(C2CC2)c2cc(N3CCNCC3)c(F)cc2c1=O` [Ciprofloxacin], in assay [3] (20 minutes exposure), the “fold downregulation, cpxA” value was 2.25 fold; the “fold downregulation, marR” value was 5.35 fold; the “fold downregulation, rpoS” value was determined as 2.08 fold; the “fold upregulation, dinB” value is recorded as 14.2 fold. Moreover, in assay [3] (20 minutes exposure), the “fold upregulation, lexA” value is reported as 10.5 fold; the “fold upregulation, recA” value was 66.6 fold; the “fold upregulation, umuC” value is listed as 11.26 fold. In assay [3] (setting [9]), the “Result, cpxA” value is reported as “DOWN (2.25-fold)”; the “Result, cpxR” value is “NDE”; the “Result, dinB” value was “UP (14.2-fold)”; the “Result, lexA” value is “UP (10.5-fold)”. Also, in assay [3] (setting [9]), the “Result, marR” value is on record as “DOWN (5.35-fold)”; the “Result, oxyR” value is “NDE”; the “Result, phoP” value is reported as “NDE”; the “Result, phoQ” value is “NDE”. In assay [3] (setting [9]), the “Result, recA” value is given as “UP (66.6-fold)”; the “Result, rpoE” value is listed as “NDE”; the “Result, rpoS” value was “DOWN (2.08-fold)”; the “Result, umuC” value is “UP (11.26-fold)”. In assay [3] (setting [10]), the “Expression, cpxA (Envelope stress)” value stood at 0.443; the “Expression, cpxR (Envelope stress)” value is 0.425; the “Expression, dinB (SOS response)” value came to 14.157; the “Expression, lexA (SOS response)” value turned out to be 10.527. For the same compound, in assay [3] (setting [10]), the “Expression, oxyR (Oxidative stress)” value is recorded as 3.552; the “Expression, phoP (Envelope stress)” value is reported as 0.655; the “Expression, phoQ (Envelope stress)” value was determined as 0.48; the “Expression, recA (SOS response)” value turned out to be 66.583. For the same compound, in assay [3] (setting [10]), the “Expression, rpoE (Envelope stress)” value is recorded as 0.391; the “Expression, rpoS (Sigma S response)” value was found to be 0.479; the “Expression, umuC (SOS response)” value stood at 11.255. For the same compound, the MIC50 in the assay on E. coli MG1655 [2] (Escherichia coli, read-out: MIC50) was 0.05 µg/mL.

These data come from PMC4192597, “Antimicrobials, Stress and Mutagenesis” (PLoS Pathogens, 2014).
